This experiment addresses USP30 (Homo sapiens (Human), UniProt Q70CQ3). Briefly: USP30 biochemical IC50 assay (fluorescence polarisation). Particulars: enzyme and compound incubated 30 min at room temp; TAMRA labelled peptide-ubiquitin substrate 50 nM; read after 2 hr incubation; read-out: IC50 range. The procedure: USP30 Biochemical IC50 Assay
Dilution plates were prepared at 21 times the final concentration ([…] for a final concentration of 100 μM) in 50% DMSO in a 96-well polypropylene V-bottom plate (Greiner #651201). A typical 8-point dilution series to be 100, 30, 10, 3, 1, 0.3, 0.1, […].
Reactions were performed in duplicate in black 384 well plates (small volume, Greiner 784076) in a final reaction volume of 21 μl. Either 1 μl of 50% DMSO or diluted compound was added to the plate. USP30 was diluted in reaction buffer (40 mM Tris, pH 7.5, 0.005% Tween 20, 0.5 mg/ml BSA, 5 mM beta-mercaptoethanol) to the equivalent of 0.05 µl/well and 10 μl of diluted USP30 was added to the compound. Enzyme and compound were incubated for 30 min at room temp. Reactions were initiated by the addition of 50 nM of TAMRA labelled peptide linked to ubiquitin via an iso-peptide bond as fluorescence polarisation substrate. Reactions were read immediately after addition of substrate and following a 2 hr incubation at room temperature. Readings were performed on a Pherastar Plus (BMG Labtech). λ Excitation 540 nm; λ Emission 590 nm.

This note sets out measurements from patent publication US10640498B2, “Compounds” (MISSION THERAPEUTICS LIMITED, priority 2016, dated 2020).

Bounds are passed on as bounds.

Sequence of USP30 (Q70CQ3 57-517): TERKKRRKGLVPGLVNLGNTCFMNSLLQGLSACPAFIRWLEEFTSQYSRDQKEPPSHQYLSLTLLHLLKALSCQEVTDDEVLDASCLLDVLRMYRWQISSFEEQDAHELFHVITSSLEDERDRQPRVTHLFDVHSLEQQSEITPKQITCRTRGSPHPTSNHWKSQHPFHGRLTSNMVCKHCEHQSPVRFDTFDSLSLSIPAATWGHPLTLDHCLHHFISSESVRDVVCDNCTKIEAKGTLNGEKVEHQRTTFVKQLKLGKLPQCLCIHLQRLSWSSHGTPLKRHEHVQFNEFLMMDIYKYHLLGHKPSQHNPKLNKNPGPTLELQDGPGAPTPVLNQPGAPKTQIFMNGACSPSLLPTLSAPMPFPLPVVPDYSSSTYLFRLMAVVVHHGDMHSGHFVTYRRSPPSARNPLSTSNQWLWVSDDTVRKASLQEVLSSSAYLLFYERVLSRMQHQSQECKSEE

As a reminder, the IC50 is the midpoint of a concentration-inhibition curve. Consider `N#CN1CCC(F)(C(=O)N2CCc3cc(C(=O)NCc4ccccc4)ccc32)C1` (stereo not drawn) [Example 67, N-Benzyl-1-(1-cyano-3-fluoropyrrolidine-3-carbonyl)indoline-5-carboxamide], for which the IC50 was in the range of 1 to 10 µM.

With `CN(C(=O)C1CCN(C#N)C1)c1ccc(-c2ccccc2)cn1` (stereo in doubt) [Example 31, (S)-1-Cyano-N-methyl-N-(5-phenylpyridin-2-yl)pyrrolidine-3-carboxamide], the IC50 lay within 1 to 10 µM.

Regarding `CN(Cc1csc(-c2ccccc2)n1)C(=O)C1CCN(C#N)C1` (stereo not drawn) [Example 47, 1-Cyano-N-methyl-N-((2-phenylthiazol-4-yl)methyl)pyrrolidine-3-carboxamide], the concentration for half-maximal inhibition (IC50) fell in the range of 0.1 to 1 µM.

Consider `N#CN1CC[C@](F)(C(=O)N2CCc3cc(-c4cccc(Cl)c4)cnc32)C1` [Example 56, (R)-3-(5-(3-Chlorophenyl)-2,3-dihydro-1H-pyrrolo[2,3-b]pyridine-1-carbonyl)-3-fluoropyrrolidine-1-carbonitrile], for which the IC50 is less than 0.1 µM.

On to `N#CN1CC[C@@H](C(=O)N2CCOc3c(-c4ccccc4)cccc32)C1` [Example 26, (R)-3-(8-Phenyl-3,4-dihydro-2H-benzo[b][1,4]oxazine-4-carbonyl)pyrrolidine-1-carbonitrile], for which the concentration for half-maximal inhibition (IC50) was 1 to 10 µM.

`N#CN1CC[C@H](C(=O)N2CCc3cc(-c4ccccc4)ccc32)C1` [Example 18, (S)-3-(5-Phenylindoline-1-carbonyl)pyrrolidine-1-carbonitrile]: the IC50 lay in the range of 0.1 to 1 µM.

Consider `Cn1ncc2cc(-c3ccc4c(c3)CCN4C(=O)C3(F)CCN(C#N)C3)ccc21` (stereo not drawn) [Example 39, 3-Fluoro-3-(5-(1-methyl-1H-indazol-5-yl)indoline-1-carbonyl)pyrrolidine-1-carbonitrile], for which the concentration for half-maximal inhibition (IC50) fell in the range of 0.1 to 1 µM.

Regarding `N#CN1CC[C@H](C(=O)N2CCCc3cc(-c4ccccc4)ccc32)C1` [Example 23, (S)-3-(6-Phenyl-1,2,3,4-tetrahydroquinoline-1-carbonyl)pyrrolidine-1-carbonitrile], the IC50 lay in the range of 0.1 to 1 µM.

Regarding `CCN(C(=O)C1CCN(C#N)C1)c1ncc(-c2ccccc2)s1` (stereo not drawn) [Example 2, 1-cyano-N-ethyl-N-(5-phenylthiazol-2-yl)pyrrolidine-3-carboxamide], the concentration for half-maximal inhibition (IC50) was in the range of 1 to 10 µM.

For `CN(C(=O)[C@@H]1CCN(C#N)C1)c1cc(-c2ccccc2)cnn1` [Example 32, (R)-1-Cyano-N-methyl-N-(5-phenylpyridazin-3-yl)pyrrolidine-3-carboxamide], the IC50 was in the range of 1 to 10 µM.

On to `CNC(=O)c1cc(-c2ccccc2)c2c(c1)N(C(=O)[C@@H]1CCN(C#N)C1)CC2` [Example 69, (R)-1-(1-Cyanopyrrolidine-3-carbonyl)-N-methyl-4-phenylindoline-6-carboxamide], for which the IC50 was 1 to 10 µM.

Turning to `N#CN1CC[C@H](C(=O)N2CCc3cc(-c4cccc5[nH]ncc45)cnc32)C1` [Example 60, (S)-3-(5-(1H-indazol-4-yl)-2,3-dihydro-1H-pyrrolo[2,3-b]pyridine-1-carbonyl)-pyrrolidine-1-carbonitrile], the half-inhibitory concentration (IC50) fell in the range of 0.1 to 1 µM.

As to `CN(Cc1cc(-c2ccccc2)no1)C(=O)C1CCN(C#N)C1` (stereo not drawn) [Example 46, 1-Cyano-N-methyl-N-((3-phenylisoxazol-5-yl)methyl)pyrrolidine-3-carboxamide], the IC50 lay within 1 to 10 µM.

Consider `CN(C(=O)[C@H]1CCN(C#N)C1)c1cc(-c2ccccc2)ccn1` [Example 4, (S)-1-Cyano-N-methyl-N-(4-phenylpyridin-2-yl)pyrrolidine-3-carboxamide], for which the IC50 was 1 to 10 µM.

On to `CN(C(=O)[C@H]1CCN(C#N)C1)c1ncc(-c2ccccc2)s1` [Example 3, (S)-1-Cyano-N-methyl-N-(5-phenylthiazol-2-yl)pyrrolidine-3-carboxamide], for which the IC50 lay within 0.1 to 1 µM.

As for `N#CN1CCC2(CCN(c3cccc(-c4ccccc4)c3)C2=O)C1` (stereo not drawn) [Example 49, 7-([1,1′-Biphenyl]-3-yl)-6-oxo-2,7-diazaspiro[4,4]nonane-2-carbonitrile], the half-maximal inhibitory concentration (IC50) fell in the range of 0.1 to 1 µM.

In the case of `C[C@H]1CN(C#N)C[C@@H]1C(=O)N1CCc2cc(-c3ccccc3)cnc21` (racemic) [Example 52, Trans-3-methyl-4-(5-phenyl-2,3-dihydro-1H-pyrrolo[2,3-b]pyridine-1-carbonyl)-pyrrolidine-1-carbonitrile], the half-maximal inhibitory concentration (IC50) lay within 0.1 to 1 µM.

For `N#CN1CCC(F)(C(=O)N2CCc3cc(-c4cccnc4)ccc32)C1` (racemic) [Example 57, 3-Fluoro-3-(5-(pyridin-3-yl)indoline-1-carbonyl)pyrrolidine-1-carbonitrile], the IC50 was in the range of 0.1 to 1 µM.

Turning to `N#CN1CC[C@H](C(=O)N2CCc3cc(-c4cccc(Cl)c4)ccc32)C1` [Example 12, (S)-3-(5-(3-Chlorophenyl)indoline-1-carbonyl)pyrrolidine-1-carbonitrile], the IC50 lay within 0.1 to 1 µM.

As for `N#CN1CC[C@@H](C(=O)N2CCOc3cc(-n4cccn4)ccc32)C1` [Example 30, (R)-3-(7-(1H-Pyrazol-1-yl)-3,4-dihydro-2H-benzo[b][1,4]oxazine-4-carbonyl)-pyrrolidine-1-carbonitrile], the IC50 was 1 to 10 µM.

With `CCc1cccc(-c2cc(C(=O)NC)cc3c2CCN3C(=O)[C@@H]2CCN(C#N)C2)c1` [Example 68, (R)-1-(1-Cyanopyrrolidine-3-carbonyl)-4-(3-ethylphenyl)-N-methylindoline-6-carboxamide], the concentration for half-maximal inhibition (IC50) lay within 0.1 to 1 µM.

As to `CCN(C(=O)[C@@H]1CCN(C#N)C1)c1ccc(-c2ccc(C#N)cc2)cn1` [Example 44, (R)-1-Cyano-N-(5-(4-cyanophenyl)pyridin-2-yl)-N-ethylpyrrolidine-3-carboxamide], the 50% inhibitory concentration (IC50) was 1 to 10 µM.

Regarding `Cn1nccc1-c1ccc2c(c1)CCN2C(=O)C1(F)CCN(C#N)C1` (stereo not drawn) [Example 36, 3-Fluoro-3-(5-(1-methyl-1H-pyrazol-5-yl)indoline-1-carbonyl)pyrrolidine-1-carbonitrile], the IC50 fell in the range of 1 to 10 µM.

As to `N#CN1CC[C@](F)(C(=O)N2CCc3cc(-c4ccccc4)ccc32)C1` [Example 54, (R)-3-Fluoro-3-(5-phenylindoline-1-carbonyl)pyrrolidine-1-carbonitrile], the IC50 was in the range of 0.1 to 1 µM.

With `CN(C(=O)C1(F)CCN(C#N)C1)c1nc2ccccc2s1` (stereo not drawn) [Example 9, N-(Benzo[d]thiazol-2-yl)-1-cyano-3-fluoro-N-methylpyrrolidine-3-carboxamide], the IC50 fell in the range of 0.1 to 1 µM.

Turning to `N#CN1CCC(F)(C(=O)N2CCc3cc(-c4ccccc4)cnc32)C1` (stereo not drawn) [Example 22, 3-Fluoro-3-(5-phenyl-2,3-dihydro-1H-pyrrolo[2,3-b]pyridine-1-carbonyl)pyrrolidine-1-carbonitrile], the IC50 was in the range of 0.1 to 1 µM.

Turning to `CN1CCN(C(=O)c2ccc(-c3ccc4c(c3)CCN4C(=O)C3(F)CCN(C#N)C3)cc2)CC1` (stereo not drawn) [Example 38, 3-Fluoro-3-(5-(4-(4-methylpiperazine-1-carbonyl)phenyl)indoline-1-carbonyl)pyrrolidine-1-carbonitrile], the IC50 is 1 to 10 µM.

For the compound `N#CN1CC[C@@](F)(C(=O)N2CCc3cc(-c4cccc(Cl)c4)cnc32)C1` [Example 55, (S)-3-(5-(3-Chlorophenyl)-2,3-dihydro-1H-pyrrolo[2,3-b]pyridine-1-carbonyl)-3-fluoropyrrolidine-1-carbonitrile], the 50% inhibitory concentration (IC50) was in the range of 0.1 to 1 µM.

Regarding `CN(C(=O)C1(F)CCN(C#N)C1)c1ncc(-c2ccccc2)s1` (stereo not drawn) [Example 8, 1-Cyano-3-fluoro-N-methyl-N-(5-phenylthiazol-2-yl)pyrrolidine-3-carboxamide], the IC50 was in the range of 0.1 to 1 µM.

Regarding `N#CN1CCC(F)(C(=O)N2CCc3cc(-c4cccc(NS(=O)(=O)C5CC5)c4)ccc32)C1` (stereo not drawn) [Example 42, N-(3-(1-(1-Cyano-3-fluoropyrrolidine-3-carbonyl)indolin-5-yl)phenyl)cyclopropanesulfonamide], the IC50 lay within 0.1 to 1 µM.

Take `N#CN1CCC(F)(C(=O)N2CCc3cc(-c4ccnn4Cc4cccnc4)ccc32)C1` (stereo not drawn) [Example 63, 3-Fluoro-3-(5-(1-(pyridin-3-ylmethyl)-H-pyrazol-5-yl)indoline-1-carbonyl)pyrrolidine-1-carbonitrile]: the concentration for half-maximal inhibition (IC50) was 1 to 10 µM.

As to `N#CN1CCC(F)(C(=O)N2CCc3cc(-c4ccnn4Cc4ccc(Cl)cc4)ccc32)C1` (stereo not drawn) [Example 66, 3-(5-(1-(4-Chlorobenzyl)-1H-pyrazol-5-yl)indoline-1-carbonyl)-3-fluoropyrrolidine-1-carbonitrile], the 50% inhibitory concentration (IC50) is 0.1 to 1 µM.

For `N#CN1CCC(F)(C(=O)N2CCc3ccc(-c4ccccc4)nc32)C1` (stereo not drawn) [Example 16, 3-Fluoro-3-(6-phenyl-2,3-dihydro-1-H-pyrrolo[2,3-b]pyridine-1-carbonyl)pyrrolidine-1-carbonitrile], the half-maximal inhibitory concentration (IC50) fell in the range of 0.1 to 1 µM.

`CCc1cccc(-c2cccc3c2CCN3C(=O)[C@@H]2CCN(C#N)C2)c1` [Example 50, (R)-3-(4-(3-Ethylphenyl)indoline-1-carbonyl)pyrrolidine-1-carbonitrile]: the concentration for half-maximal inhibition (IC50) lay within 0.1 to 1 µM.

Take `N#CN1CC[C@H](C(=O)N2CCc3c(-c4ccccc4)cccc32)C1` [Example 10, (S)-3-(4-Phenylindoline-1-carbonyl)pyrrolidine-1-carbonitrile]: the half-inhibitory concentration (IC50) was in the range of 0.1 to 1 µM.

Regarding `N#CN1CC[C@H](C(=O)N2CCc3c(-c4cccc(Cl)c4)ccnc32)C1` [Example 28, (S)-3-(4-(3-Chlorophenyl)-2,3-dihydro-1H-pyrrolo[2,3-b]pyridine-1-carbonyl)pyrrolidine-1-carbonitrile], the IC50 was in the range of 1 to 10 µM.
